{
  "source": "paper PMC7847937",
  "about": "“Search for Antimicrobial Activity Among Fifty-Two Natural and Synthetic Compounds Identifies Anthraquinone and Polyacetylene Classes That Inhibit Mycobacterium tuberculosis” (Frontiers in Microbiology, 2021)",
  "data": [
    {"test_system": "Mycobacterium tuberculosis H37Rv", "test": "Compound library screen against M. tuberculosis at 100 μg/mL (CellTiter-Blue viability)", "type": "cell-based", "settings": "library screen at 100 μg/mL, 7 days", "values": [
      {"smiles": "COc1c(C)c(O)cc2c1C(=O)c1ccccc1C2=O", "note": "[Compound C25, rubiadin 1-methyl ether]", "anti-M. tuberculosis activity (in words)": "no anti-M. tuberculosis activity"},
      {"smiles": "COC(=O)C1=C(N)Oc2cc(O)cc(O)c2C1c1ccc([N+](=O)[O-])cc1", "note": "(stereo not drawn) [Compound C16]", "anti-M. tuberculosis activity (in words)": "not active"},
      {"smiles": "CC1(C)C=Cc2c(ccc(C(=O)/C=C/c3ccc(O)cc3)c2O)O1", "note": "[Compound C21, 4-hydroxylonchocarpine]", "anti-M. tuberculosis activity (in words)": "not mycobactericidal"}
    ]},
    {"test_system": "Mycobacterium tuberculosis H37Rv", "test": "MIC determination by resazurin microtiter plate assay (REMA) with CellTiter-Blue", "type": "cell-based", "settings": "M. tuberculosis H37Rv, 7 days, two-fold dilutions 100 to 1.56 μg/mL, Gompertz fit", "units": {"MIC": "µg/mL"}, "values": [
      {"smiles": "CC1(C)C=Cc2cc3c(cc2O1)O[C@H]1c2ccc(O)cc2OC[C@@H]31", "note": "[Compound C23, Isoneorautenol]", "MIC": 49.22},
      {"smiles": "OCCCC#CC#CC#CC#CCCCO", "note": "[Compound C53, Tetradeca-4,6,8,10-tetrayne-1,14-diol]", "MIC": 17.88},
      {"smiles": "COc1c(C=O)c(O)cc2c1C(=O)c1ccccc1C2=O", "note": "[Compound C22, Damnacanthal]", "MIC": 13.07},
      {"smiles": "COC(=O)C1=C(N)Oc2cc(O)c3c(C)cc(=O)oc3c2C1c1ccc([N+](=O)[O-])cc1", "note": "(stereo not drawn) [Compound C10]", "MIC": 29.13}
    ]},
    {"test_system": "Mycobacterium tuberculosis H37Rv", "test": "MIC determination by resazurin microtiter plate assay (REMA) with CellTiter-Blue", "type": "cell-based", "settings": "Mycobacterium tuberculosis, H37RV, 168 h, M. tuberculosis H37Rv, 7 days, two-fold dilutions 100 to 1.56 μg/mL, Gompertz fit; read-out: MIC", "units": {"MIC": "µg/mL"}, "values": [
      {"smiles": "CC1(C)C=Cc2cc3c(cc2O1)O[C@H]1c2ccc(O)cc2OC[C@@H]31", "note": "[Compound C23, Isoneorautenol]", "MIC": "25 to 71"},
      {"smiles": "COC(=O)/C(C#N)=C/C=C/c1ccccc1", "note": "[Compound C13]", "MIC": "≥ 100"},
      {"smiles": "OCCCC#CC#CC#CC#CCCCO", "note": "[Compound C53, Tetradeca-4,6,8,10-tetrayne-1,14-diol]", "MIC": "< 20"},
      {"smiles": "CC(C)=CCc1c(O)c(CC=C(C)C)c2c(c1O)C(=O)C[C@@H](c1ccc(O)c(O)c1)O2", "note": "[Compound C24, 6,8-diprenyleriodictyol]", "MIC": "≥ 100"},
      {"smiles": "COc1c(C=O)c(O)cc2c1C(=O)c1ccccc1C2=O", "note": "[Compound C22, Damnacanthal]", "MIC": "< 20"},
      {"smiles": "CCOC(=O)C1=C(C)N(c2ccccc2)C(C)=C(C(=O)OCC)C1c1cc(OC)c(O)c(OC)c1", "note": "[Compound C49]", "MIC": "≥ 100"},
      {"smiles": "CCOC(=O)C1=C(C)NC(C)=C(C(=O)OCC)C1c1ccc(O)c(OC)c1", "note": "[Compound C38]", "MIC": "≥ 100"},
      {"smiles": "CCOC(=O)C1=C(C)NC(C)=C(C(=O)OCC)C1c1cc(OC)c(O)c(OC)c1", "note": "[Compound C41]", "MIC": "≥ 100"},
      {"smiles": "CCOC(=O)C1=C(C)NC(C)=C(C(=O)OCC)C1c1cc(OC)c(OC)c(OC)c1", "note": "[Compound C40]", "MIC": "≥ 100"},
      {"smiles": "COC(=O)C1=C(N)Oc2cc(O)c3c(C)cc(=O)oc3c2C1c1ccc([N+](=O)[O-])cc1", "note": "(stereo not drawn) [Compound C10]", "MIC": "25 to 71"},
      {"smiles": "CCOC(=O)C1=C(C)N(c2ccccc2)C(C)=C(C(=O)OCC)C1c1ccc(O)cc1", "note": "[Compound C45]", "MIC": "≥ 100"},
      {"smiles": "COC(=O)C1=C(N)Oc2cc(O)cc(O)c2C1c1ccc(Br)cc1", "note": "(stereo not drawn) [Compound C15]", "MIC": "≥ 100"},
      {"smiles": "COC(=O)C1=C(N)Oc2cc(O)cc(O)c2C1c1ccc(Cl)cc1", "note": "(stereo not drawn) [Compound C14]", "MIC": "≥ 100"},
      {"smiles": "CCOC(=O)C1=C(C)NC(C)=C(C(=O)OCC)C1c1ccc([N+](=O)[O-])cc1", "note": "[Compound C36]", "MIC": "≥ 100"}
    ]},
    {"test_system": "Mycobacterium tuberculosis H37Rv", "test": "MIC determination by resazurin microtiter plate assay (REMA) with CellTiter-Blue", "type": "cell-based", "settings": "dose response, Figure 6", "values": [
      {"smiles": "COC(=O)/C(C#N)=C/C=C/c1ccccc1", "note": "[Compound C13]", "antimycobacterial activity (in words)": "weak activity"},
      {"smiles": "COC(=O)C1=C(N)Oc2cc(O)cc(O)c2C1c1ccc(Cl)cc1", "note": "(stereo not drawn) [Compound C14]", "antimycobacterial activity (in words)": "weak antimycobacterial activity"}
    ]},
    {"test_system": "human monocytic THP-1 cell line", "test": "Cytotoxicity assay in THP-1 monocytes (CellTiter-Blue, 24 h)", "type": "cell-based", "settings": "Homo sapiens, THP-1, 24 h", "units": {"IC50": "µg/mL"}, "values": [
      {"smiles": "COC(=O)/C(C#N)=C/C=C/c1ccccc1", "note": "[Compound C13]", "IC50": 95.9}
    ]},
    {"test_system": "human monocytic THP-1 cell line", "test": "Cytotoxicity assay in THP-1 monocytes (CellTiter-Blue, 24 h)", "type": "cell-based", "settings": "Homo sapiens; THP-1 cells, 24 h treatment, 200 to 1.56 μg/mL; read-out: IC50", "units": {"IC50": "µg/mL"}, "values": [
      {"smiles": "CC1(C)C=Cc2cc3c(cc2O1)O[C@H]1c2ccc(O)cc2OC[C@@H]31", "note": "[Compound C23, Isoneorautenol]", "IC50": 44.3},
      {"smiles": "OCCCC#CC#CC#CC#CCCCO", "note": "[Compound C53, Tetradeca-4,6,8,10-tetrayne-1,14-diol]", "IC50": 17},
      {"smiles": "CC(C)=CCc1c(O)ccc(C(=O)/C=C/c2ccc(O)cc2)c1O", "note": "[Compound C1, Isobavachalcone]", "IC50": 45.9},
      {"smiles": "COc1c(C=O)c(O)cc2c1C(=O)c1ccccc1C2=O", "note": "[Compound C22, Damnacanthal]", "IC50": 21.4},
      {"smiles": "CC#CC#CC#CCCCO", "note": "[Compound C51, Deca-4,6,8-triyn-1-ol]", "IC50": 170},
      {"smiles": "COC(=O)C1=C(N)Oc2cc(O)c3c(C)cc(=O)oc3c2C1c1ccc([N+](=O)[O-])cc1", "note": "(stereo not drawn) [Compound C10]", "IC50": 64.2},
      {"smiles": "COC(=O)C1=C(N)Oc2cc(O)cc(O)c2C1c1ccc(Cl)cc1", "note": "(stereo not drawn) [Compound C14]", "IC50": 47.2}
    ]},
    {"test_system": "human monocytic THP-1 cell line", "test": "Cytotoxicity assay in THP-1 monocytes (CellTiter-Blue, 24 h)", "type": "cell-based", "settings": "compared to the other active compounds", "values": [
      {"smiles": "CC#CC#CC#CCCCO", "note": "[Compound C51, Deca-4,6,8-triyn-1-ol]", "toxicity (in words)": "low toxicity"},
      {"smiles": "COC(=O)C1=C(N)Oc2cc(O)c3c(C)cc(=O)oc3c2C1c1ccc([N+](=O)[O-])cc1", "note": "(stereo not drawn) [Compound C10]", "toxicity (in words)": "low toxicity"}
    ]},
    {"test_system": "not given", "test": "not given", "settings": "not given", "units": {"melting point": "°C"}, "values": [
      {"smiles": "OCCCC#CC#CC#CC#CCCCO", "note": "[Compound C53, Tetradeca-4,6,8,10-tetrayne-1,14-diol]", "melting point": "116.5 to 117"}
    ]},
    {"test_system": "THP-1 cells", "test": "not given", "settings": "cited from earlier work", "units": {"cytotoxic concentration 50% (CC50)": "µg/mL"}, "values": [
      {"smiles": "CC(C)=CCc1c(O)ccc(C(=O)/C=C/c2ccc(O)cc2)c1O", "note": "[Compound C1, Isobavachalcone]", "cytotoxic concentration 50% (CC50)": 11.65},
      {"smiles": "COc1c(C=O)c(O)cc2c1C(=O)c1ccccc1C2=O", "note": "[Compound C22, Damnacanthal]", "cytotoxic concentration 50% (CC50)": 8.87}
    ]},
    {"test_system": "AML12 hepatocytes", "test": "not given", "settings": "cited from earlier work", "units": {"concentration up to which no cytotoxicity was shown": "µM"}, "values": [
      {"smiles": "CC1(C)C=Cc2cc3c(cc2O1)O[C@H]1c2ccc(O)cc2OC[C@@H]31", "note": "[Compound C23, Isoneorautenol]", "concentration up to which no cytotoxicity was shown": "> 123.46"}
    ]},
    {"test_system": "human monocyte cells", "test": "not given", "settings": "cited from earlier work", "values": [
      {"smiles": "COC(=O)/C(C#N)=C/C=C/c1ccccc1", "note": "[Compound C13]", "toxicity to human monocyte cells (in words)": "moderately toxic"},
      {"smiles": "COC(=O)C1=C(N)Oc2cc(O)cc(O)c2C1c1ccc(Cl)cc1", "note": "(stereo not drawn) [Compound C14]", "toxicity to human monocyte cells (in words)": "moderately toxic"}
    ]}
  ]
}
